{"source": "patent US12109187B2", "about": "“Antimicrobial compositions and related methods” (priority 2020, dated 2024)", "key": {"[1]": {"system": "F. tularensis live vaccine strain (LVS)", "assay": "microbe, parasite or virus in culture", "type": "cell-based, Francisella tularensis"}, "F. tularensis LVS/pTC3D": {"system": "F. tularensis LVS/pTC3D", "type": "cell-based, Francisella tularensis"}, "TNFα": {"system": "TNFα", "type": "cell-based"}, "MglA/SspA regulon": {"system": "MglA/SspA regulon", "type": "cell-based, Francisella tularensis LVS"}, "Acinetobacter baumannii": {"system": "Acinetobacter baumannii", "parameters": "species or system Galleria mellonella", "conditions": "in vivo"}, "A. baumannii": {"system": "A. baumannii", "type": "cell-based, Acinetobacter baumannii"}, "IglA": {"system": "IglA", "type": "cell-based, Francisella tularensis LVS"}, "IglC": {"system": "IglC", "type": "cell-based, Francisella tularensis LVS"}, "LpnA": {"system": "LpnA", "type": "cell-based, Francisella tularensis LVS"}, "F. tularensis LVS": {"system": "F. tularensis LVS", "type": "cell-based, Francisella tularensis"}}, "note": "Entries after “also recorded” stand apart in the source; their conditions may differ."}
{"smiles": "C=CCc1cc2c(c(OC)c1OC)OCO2", "note": "[dillapiole]", "values": [{"measurement": "intracellular replication of F. tularensis LVS in THP-1 monocytes (CFU)", "setting": "[1]", "value": "sufficient to inhibit replication of F. tularensis"}, {"measurement": "MIC", "setting": "[1]; Francisella tularensis, read-out: minimum inhibitory concentration (MIC)", "value": "< 7", "unit": "µg/mL"}, {"measurement": "replication of F. tularensis in RAW 264.7 mouse macrophages", "setting": "F. tularensis LVS/pTC3D", "value": "sufficient to inhibit replication of F. tularensis"}, {"measurement": "TNFα production", "setting": "TNFα", "value": "decreased TNFα production"}, {"measurement": "expression of virulence factors / genes controlled by MglA/SspA (incl. FPI genes)", "setting": "MglA/SspA regulon", "value": "decrease in expression of several key virulence factors; also recorded: significantly decreased expression following treatment with dillapiole"}, {"measurement": "rate of survival of infected wax worms", "setting": "Acinetobacter baumannii", "value": "significantly higher rate of survival"}, {"measurement": "A. baumannii viability in rich growth media", "setting": "A. baumannii", "value": "did not diminish A. baumannii viability"}, {"measurement": "IglA protein expression", "setting": "IglA", "value": "significant reduction"}, {"measurement": "IglC protein expression", "setting": "IglC", "value": "significant reduction"}, {"measurement": "LpnA production", "setting": "LpnA", "value": "unaffected"}, {"measurement": "bacterial growth as determined by optical density", "setting": "F. tularensis LVS", "value": "did not affect bacterial growth"}, {"measurement": "toxicity to mammalian cells", "setting": "mammalian cells", "value": "not toxic to mammalian cells"}]}
